From US8653108B1, “Oximes for treatment of peripheral and central nervous system exposure to acetyl cholinesterase inhibitors” (priority 2011, dated 2014)

Experiments:
[1] = tested on: Madin Darby canine kidney cell line transfected with human MDR-1 gene; experiment: MDR/MDCK bidirectional transwell permeability assay; assay type: in vitro ADME
Procedure: (§1) See, Wang, Q. et al, Evaluation of the MDR-MDCK Cell Line As a Permeability Screen For The Blood Brain Barrier, Int. J. Pharm. 288(2) 349-359. The assay is a bidirectional assay in a transwell format system, assessing the permeability of compounds across a Madin Darby canine kidney cell line transfected with human MDR-1 gene. Efflux is assessed based on ratios from the basolateral and apical sides of the chamber.

[2] = tested on: human MDR-1 (P-gp); experiment: as above; assay type: in vitro ADME, canine; conditions: dog
Procedure: as §1

Compound	Brain Penetration Classification [1]	Papp A-B ([1]; apical to basolateral) [×10⁻⁶ cm/s]	Papp B-A ([1]; basolateral to apical) [×10⁻⁶ cm/s]	Papp A→B ([2]; MDCK-MDR1, apical to basolateral) [×10⁻⁶ cm/s]	Papp B→A ([2]; MDCK-MDR1, basolateral to apical) [×10⁻⁶ cm/s]
CS(=O)(=O)[O-].CS(=O)(=O)[O-].ON=Cc1cc[n+](C[n+]2ccc(C=NO)cc2)cc1 [MMB4 DMS]	Low	<0.57	<0.57		
CCN(CC)CCNC(=O)/C=N/O.Cl [Example 1, N-(2-(diethylamino)ethyl)-2-(hydroxyimino)acetamide hydrochloride]	Low			< 0.51	< 0.67
